Read-outs that look alike come from different tables or passages of the source.
Legend:
[1] = target: EcDERA (deoxyribose-5-phosphate aldolase); HSA = its T19S/G171A/V206I mutant (Escherichia coli, UniProt P0A6L0)
[2] = target: T1, CkPTA (phosphotransacetylase) (Clostridium kluyveri, UniProt A5N801); assay: acetyl-CoA formation; assay type: biochemical
T1 sequence (A5N801 1-333): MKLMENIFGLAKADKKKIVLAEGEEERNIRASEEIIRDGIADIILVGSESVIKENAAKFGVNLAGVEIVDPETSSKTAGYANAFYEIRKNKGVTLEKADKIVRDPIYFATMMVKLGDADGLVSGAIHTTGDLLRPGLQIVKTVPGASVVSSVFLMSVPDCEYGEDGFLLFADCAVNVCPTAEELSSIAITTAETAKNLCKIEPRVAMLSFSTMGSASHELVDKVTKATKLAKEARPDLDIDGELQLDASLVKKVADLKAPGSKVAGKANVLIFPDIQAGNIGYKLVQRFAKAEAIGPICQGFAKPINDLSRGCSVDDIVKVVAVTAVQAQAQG

EcDERA (deoxyribose-5-phosphate aldolase); HSA = its T19S/G171A/V206I mutant, sequence (P0A6L0 whole entry T19S/G171A/V206I): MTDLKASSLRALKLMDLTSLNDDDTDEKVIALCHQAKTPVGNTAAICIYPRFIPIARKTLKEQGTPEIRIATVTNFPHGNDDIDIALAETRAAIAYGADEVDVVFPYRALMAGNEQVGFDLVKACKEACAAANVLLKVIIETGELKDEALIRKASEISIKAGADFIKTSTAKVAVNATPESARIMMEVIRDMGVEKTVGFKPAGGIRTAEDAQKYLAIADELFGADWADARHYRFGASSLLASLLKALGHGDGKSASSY

`O=C[C@H](O)[C@H](O)COP(=O)(O)O` [erythrose 4-phosphate] was tested. Which “product formation (H6P)” value ([1]; with glycolaldehyde) did it give?
The value was “enzyme for the condensation of glycolaldehyde and E4P to H6P”.

Which acetyl-CoA formation [2] does the source give for `CC(=O)OP(=O)(O)O` [acetyl phosphate] here?
The acetyl-CoA formation was “CkPTA then converted acetyl phosphate into acetyl-CoA as the output product”.

For `CC(=O)SCCNC(=O)CCNC(=O)[C@H](O)C(C)(C)COP(=O)(O)OP(=O)(O)OC[C@H]1O[C@@H](n2cnc3c(N)ncnc32)[C@H](O)[C@@H]1OP(=O)(O)O` [acetyl-CoA], which acetyl-CoA formation [2] is on record?
The acetyl-CoA formation was “CkPTA then converted acetyl phosphate into acetyl-CoA as the output product”.

With `O=CCO` [glycolaldehyde] as the molecule, how does the “product formation (H6P)” value ([1]; with erythrose 4-phosphate) read?
Its value is “deoxyribose-5-phosphate aldolase (EcDERA) showing the highest activity”.

— PMC11695965 (Nature Communications, 2025)
